The values that follow are results of earlier work, collected in the CATMoS acute toxicity set (Mansouri et al. 2021).

Several values for one entry are separate records, joined by “and”; a condition that tells them apart may be missing. Identical values can stand only once.

This data set is described as follows: rat acute oral toxicity. To be noted: in vivo.
For `COc1c2ccoc2cc2oc(CO[C@@H]3O[C@H](CO)[C@@H](O)[C@H](O)[C@H]3O)cc(=O)c12`, the LD50 is 1470 mg/kg.

Consider `Cc1ccccc1N1C(=O)C=CC1=O`, for which the LD50 is 250 mg/kg. Turning to `CC(O)COC[C@H]1O[C@@H](O)[C@H](OCC(C)O)[C@@H](OCC(C)O)[C@@H]1O` (stereo partly specified), the LD50 was 10200 mg/kg.

With `C=CP(=O)(OCCCl)OCCCl`, the LD50 is 990 mg/kg. As for `CC(C)(C)C(CS(C)(=O)=O)=NO`, the LD50 is 734 mg/kg. `CNC(=O)O/N=C/C(C)(C)S(C)=O` (stereo unspecified): the LD50 is 0.49 mg/kg. On to `O=CN(c1ncnc2c1ncn2C1CC1)C1CC1`, for which the LD50 is 175 mg/kg. On to `CC(C)=Cc1ccc(C(C)C(=O)O)cc1` (stereo unspecified), for which the LD50 is 1300 mg/kg. `Cc1ccccc1OCC(O)CO` (stereo unspecified): the LD50 was 625 mg/kg.

`COC(C)CC(CC(OC)OC)OC` (stereo unspecified): the LD50 was 4090 mg/kg. `O=C(c1ccc(Cl)cc1)c1ccccc1-c1ncc[nH]1`: the LD50 was 600 mg/kg. `CCCC1(c2cccc(O)c2)CCN(C)C1` (stereo unspecified): the LD50 is 231 mg/kg. For `ClC1=C(Cl)C2(Cl)C3CCC4C(CCC3C1(Cl)C2(Cl)Cl)C1(Cl)C(Cl)=C(Cl)C4(Cl)C1(Cl)Cl` (stereo unspecified), the LD50 was 25000 mg/kg.

Take `O=Cc1ccc(CO)o1`: the LD50 is 2500 mg/kg. As for `Cn1c2ccccc2c2cc(N)ccc21`, the median lethal dose (LD50) is 347 mg/kg. `CNC(=O)N1C(=O)CN=C(c2ccccc2)c2cc([N+](=O)[O-])ccc21`: the LD50 is 2280 mg/kg. Regarding `CCOc1cc(C=O)ccc1O`, the LD50 was 1590 mg/kg. For `Cc1ccc(N2C(=O)C=CC2=O)cc1`, the LD50 is 710 mg/kg. Take `COc1ccccc1C1CCN(CCCc2ccc3c(c2)CCC(=O)N3)CC1`: the LD50 was 500 mg/kg. For the compound `CCNC(=S)OC(C)C`, the LD50 is 568 mg/kg.

In the case of `C=S`, the LD50 was 365 mg/kg. `O=C1C(Cl)=C(Cl)C(Cl)(Cl)C1(Cl)Cl`: the LD50 was 178 mg/kg. With `CCSCc1ccccc1OC(=O)NC`, the LD50 is 200 mg/kg. Take `CN(C(=O)C[N+](C)(C)C)C(=O)Oc1cccc2c1OC(C)(C)C2`: the LD50 is 33.6 mg/kg. Regarding `CCCCCCCC(C)=O`, the LD50 is 3200 mg/kg.

Take `CCOP(=S)(OCC)SC1COCCS1` (stereo unspecified): the LD50 was 3 mg/kg. Turning to `Cc1csc2c(Cl)cccc12`, the LD50 was 300 mg/kg. For the compound `O=[N+]([O-])c1ccc(F)cc1F`, the LD50 is 200 mg/kg. Turning to `CCCCC(CC)COC(=O)c1ccccc1C(=O)OCC(CC)CCCC` (stereo unspecified), the LD50 is 30000 mg/kg. As for `Clc1cccc(N2CCNCC2)n1`, the LD50 was 174 mg/kg.

In the case of `CCN(CC)C(=O)CCl`, the LD50 was 500 mg/kg. In the case of `C=COCCOCCOC=C`, the LD50 is 3730 mg/kg. `CC[N+](CC)(CC)Cc1ccc(C(C)C(C)c2ccccc2)cc1` (stereo unspecified): the LD50 was 2180 mg/kg. Regarding `C=CC(=O)OCCOC(=O)C=C`, the LD50 was 300 mg/kg. As to `CC(C)=CCl`, the LD50 was 4460 mg/kg.

Regarding `CN(C)C1CSSSC1`, the LD50 was 195 mg/kg. Take `CCN(CC)C(=O)CSc1ccc(Cl)nn1`: the LD50 is 1550 mg/kg. On to `CCCCOCCOCCOC(=O)CCCCC(=O)OCCOCCOCCCC`, for which the LD50 was 6000 mg/kg.

Consider `O=C(O)c1cccc(Cl)n1`, for which the LD50 was 2180 mg/kg. With `COP(=S)(OC)Oc1ccc(S(N)(=O)=O)cc1`, the LD50 is 160 mg/kg. With `O=C1CC[C@@]2(O)[C@H]3Cc4ccc(O)c5c4[C@@]2(CCN3CC2CC2)[C@H]1O5`, the LD50 was 1450 mg/kg.

Take `O=C(O)c1c(Cl)ccc2cc(Cl)cnc12`: the LD50 is 2190 mg/kg. For the compound `CCCCCCCCCCCC[N+](C)(C)CC(=O)[O-]`, the LD50 was 71 mg/kg. `O=C(CCl)CC(=O)Nc1ccccc1`: the LD50 was 1820 mg/kg. For `CS(=O)c1ccc(Cl)cc1` (stereo unspecified), the LD50 was 463 mg/kg.

For `NC(=O)C1(N2CCCCC2)CCN(CCCN2c3ccccc3CCc3ccccc32)CC1`, the LD50 was 1020 mg/kg. For `CC(=CC(O)(C(F)(F)F)C(F)(F)F)CC(O)(C(F)(F)F)C(F)(F)F`, the LD50 is 18 mg/kg. Turning to `CCS(=O)(=O)Nc1c(C)cc(OC(=O)NC)cc1C`, the LD50 was 780 mg/kg.

Consider `OCc1c(F)c(F)c(F)c(F)c1F`, for which the LD50 is 900 mg/kg. For `CC(C)CC(C)Nc1ccc(Nc2ccccc2)cc1` (stereo unspecified), the LD50 was 3580 mg/kg. On to `C=C(C)C(=O)Nc1ccc(Cl)c(Cl)c1`, for which the LD50 is 1800 mg/kg. In the case of `COC(F)(F)C(Cl)Cl`, the LD50 is 3600 mg/kg. In the case of `CC(C(=O)OCCCS(=O)(=O)O)c1ccc(-c2ccccc2)cc1` (stereo unspecified), the LD50 was 280 mg/kg. Regarding `COc1ccc(C(=O)Nc2ccccc2CCC2CCCCN2C)cc1` (stereo unspecified), the LD50 was 57 mg/kg. Take `Cc1cncc(C)n1`: the LD50 is 880 mg/kg. Turning to `ClC=Cc1ccccc1`, the LD50 is 5200 mg/kg. As for `CCCCCCCCOS(=O)(=O)O`, the LD50 is 3200 mg/kg. With `CN1CCC(OC(=O)C2CCc3cc(C4CCCCC4)ccc32)CC1` (stereo unspecified), the LD50 is 572 mg/kg. On to `Cc1ccc(NCCCc2ccccc2)cc1`, for which the LD50 was 1600 mg/kg. As for `O=C(O)c1cc(-c2ccc(F)cc2F)ccc1O`, the LD50 is 392 mg/kg. Consider `O=C(O)/C=C\Cl`, for which the LD50 is 320 mg/kg. As to `NNc1nncc2ccccc12`, the LD50 was 90 mg/kg.

For `C=CCCCCCCCCC(=O)O`, the LD50 was 2500 mg/kg.

Turning to `CCCCN(N=O)c1ccc(N(CCCC)N=O)cc1`, the LD50 is 2600 mg/kg. As to `[SiH3]CCCCC(Cl)(Cl)Cl`, the LD50 was 2340 mg/kg. For `CN(C)CCC1(c2ccccc2)C=Cc2ccccc21` (stereo unspecified), the LD50 is 385 mg/kg.

Regarding `CCC(O)OC(C)(C)C` (stereo unspecified), the LD50 was 2520 mg/kg.

Take `CS(=O)(=O)c1ccc(Cl)cc1`: the LD50 is 400 mg/kg.

With `CCN(CC)N=Nc1cccnc1`, the LD50 was 210 mg/kg. On to `Cc1cccc2sc(N)nc12`, for which the LD50 is 500 mg/kg.

`Nc1c(CC(=O)O)cccc1C(=O)c1ccccc1`: the LD50 was 311 mg/kg. As to `O=C1CN(N=Cc2ccc([N+](=O)[O-])o2)C(=O)N1`, the LD50 was 604 mg/kg. Take `CCCNC(=O)C(C)Nc1ccc(OCC)cc1` (stereo unspecified): the LD50 is 3000 mg/kg.

In the case of `CNC(=O)Oc1cc(C(C)C)c(OC(=O)NC)cc1C`, the LD50 is 60 mg/kg. `COc1ccc(CC(=S)N(C)C)cc1`: the LD50 was 22 mg/kg. Consider `COC(=O)C(c1ccccc1)C1CCCCN1` (stereo unspecified), for which the LD50 was 367 mg/kg and 350 mg/kg. Turning to `CCCCOC(=O)CC(C)=O`, the LD50 is 11300 mg/kg.

Turning to `Cc1ccc(NC2=NCCN2)c(Cl)c1`, the LD50 was 420 mg/kg. Turning to `CCO[Si](C)(C)c1ccccc1`, the LD50 was 2460 mg/kg. On to `CCC(=O)OCC(=O)[C@@]1(OC(=O)CC)[C@H](C)C[C@H]2[C@H]3[C@H]([C@@H](O)C[C@@]21C)[C@@]1(C)C=CC(=O)C=C1C[C@H]3Cl`, for which the LD50 is 3590 mg/kg.

With `C=C(C)C(C)=O`, the LD50 was 180 mg/kg. Turning to `CC[N+](C)(C)CCC(C(N)=O)(c1ccccc1)c1ccccc1`, the LD50 is 1350 mg/kg.

On to `CC(C)NCC(O)c1ccc2ccccc2c1` (stereo unspecified), for which the LD50 is 900 mg/kg. Take `CCCCOCCOC(=O)c1ccccc1C(=O)OCCOCCCC`: the LD50 was 8380 mg/kg. Consider `CCN(CC)P1(=S)OCc2cc([N+](=O)[O-])ccc2O1` (stereo unspecified), for which the LD50 was 150 mg/kg. In the case of `COc1cc(Cc2cnc(N)nc2N)cc(OC)c1OC`, the LD50 is 200 mg/kg. Consider `CCOP(=S)(OCC)OC(=CCl)c1ccc(Cl)cc1Cl`, for which the LD50 was 10 mg/kg. Take `CCC(=O)OC1CCC(N2CCCCC2)CC1` (stereo unspecified): the LD50 is 1980 mg/kg. As for `Cc1ccc(C(=O)CC(=O)C(F)(F)F)cc1`, the LD50 is 300 mg/kg.

As to `Cc1c(C(C)C)c(=O)n(-c2ccccc2)n1C`, the LD50 was 860 mg/kg. In the case of `Cc1cccc(O)c1`, the LD50 is 242 mg/kg.

`Nc1c(Cl)cc(Cl)cc1C(=O)O`: the LD50 is 4120 mg/kg.

As to `CN(C)N=Nc1ccc(Cl)cc1`, the LD50 was 362 mg/kg.

Consider `CC(C)C(=O)N(C)C(=O)Oc1cccc(C(C)C)c1`, for which the LD50 was 631 mg/kg. Turning to `C/C=C/C(=O)OCC`, the LD50 was 3000 mg/kg. For `CCCCOC(C)OCCCC`, the LD50 was 8790 mg/kg. For the compound `NS(=O)(=O)c1cc(Cl)c(Cl)c(S(N)(=O)=O)c1`, the LD50 is 10100 mg/kg. As to `Cc1cc(O)cc(C)c1Cl`, the LD50 was 3830 mg/kg. As to `O=c1[nH]c2cc(Br)ccc2o1`, the LD50 is 1050 mg/kg. On to `COP(=O)(OC)C(OC(C)=O)=C(Cl)Cl`, for which the LD50 was 300 mg/kg. Take `O=S(=O)(O)c1cc(Cl)ccc1C=Cc1ccc(-n2nc3cc(S(=O)(=O)O)c4ccccc4c3n2)cc1S(=O)(=O)O`: the LD50 is 13700 mg/kg.

`COP(N)(=S)Oc1ccc(C(C)(C)C)cc1Cl` (stereo unspecified): the LD50 is 820 mg/kg. On to `Cc1ncc(CS)c(CS)c1O`, for which the LD50 was 549 mg/kg. Take `COc1nc(Cl)nc(OC)n1`: the LD50 is 870 mg/kg.

Regarding `COC(=O)c1ccco1`, the LD50 was 300 mg/kg. With `O=C(CCCN1CCN(c2ccccc2)CC1)c1ccc(F)cc1`, the LD50 is 550 mg/kg. Take `CC=Cc1cc(OC)c(OC)cc1OC`: the LD50 was 1010 mg/kg. With `O=NN(CCCl)C(=O)NCCCl`, the LD50 is 20 mg/kg.

Take `Nc1nc2c(Cl)cccc2o1`: the LD50 was 500 mg/kg. For `CNC(=C[N+](=O)[O-])NCCSCc1csc(CN(C)C)n1`, the LD50 was 1650 mg/kg.

Turning to `CCCC(C)OC(N)=O` (stereo unspecified), the LD50 was 421 mg/kg. For the compound `O=C(O)c1nn(Cc2ccc(Cl)cc2Cl)c2ccccc12`, the LD50 was 1700 mg/kg. As to `NCCCCCCNCCCCCCN`, the LD50 is 450 mg/kg. `NCCCOCCCCOCCCN`: the LD50 is 3450 mg/kg. With `Nc1cccc2c(Cl)ccc(Cl)c12`, the LD50 was 3490 mg/kg. Consider `CCNC(=O)C(C)OC(=O)Nc1ccccc1` (stereo unspecified), for which the LD50 is 11000 mg/kg.

As for `CCCC(C)C(=O)Nc1ccc(C)c(Cl)c1` (stereo unspecified), the LD50 is 5100 mg/kg. On to `CCCCC(C)(C)O`, for which the LD50 is 820 mg/kg. In the case of `CCCCOCCOCCCO`, the LD50 was 5160 mg/kg. For the compound `Nc1ccc(CCNCC(O)c2ccccc2)cc1` (stereo unspecified), the LD50 is 200 mg/kg. Regarding `CCC(C)C(CC)C(N)=O` (stereo unspecified), the LD50 is 760 mg/kg. `CCOP(=S)(OCC)SC1CCOC1=O` (stereo unspecified): the LD50 is 1000 mg/kg.

`CCCc1nc(C)cc(OC(=O)N(C)C)n1`: the LD50 is 200 mg/kg.

Take `CN1CCCCC1C(CO)(c1ccccc1)c1ccccc1` (stereo unspecified): the LD50 is 410 mg/kg. As for `CCCSC(=O)Oc1c(C(C)CC)cc([N+](=O)[O-])cc1[N+](=O)[O-]` (stereo unspecified), the LD50 is 584 mg/kg.

Regarding `C=CC(=O)OC(C)(C)C`, the LD50 is 1050 mg/kg.

Consider `NCCC[C@H](N)C(=O)O`, for which the LD50 is 10000 mg/kg. For the compound `COP(=S)(OC)SCCSC`, the LD50 is 75 mg/kg. Consider `CCc1ccc(C(=O)C(C)CN2CCCCC2)cc1` (stereo unspecified), for which the LD50 is 1000 mg/kg. On to `COc1cc2c(cc1OC)C1CC(=O)C(CCC#N)CN1CC2` (stereo unspecified), for which the LD50 was 620 mg/kg. For the compound `O=C(O)CCCO`, the LD50 is 9690 mg/kg.
